The values below are quoted from earlier work in the CATMoS acute toxicity set (Mansouri et al. 2021).

Several values for one entry are separate records, joined by “and”; a condition that tells them apart may be missing. Identical values can stand only once.

The nature of the data set: rat acute oral toxicity. The settings on record: in vivo.
As usually defined, the LD50 is the dose at which mortality reaches 50%. As for `O=C=Nc1ccc(Cc2ccc(N=C=O)cc2N=C=O)cc1`, the median lethal dose (LD50) was 20000 mg/kg.
`Cc1csc2c(Cl)cccc12`: the 50% lethal dose (LD50) was 300 mg/kg.
Take `O=Cc1cccc(Br)c1`: the LD50 was 1130 mg/kg.
Regarding `CCCC1(CC(=O)O)OCCc2c1[nH]c1ccccc21` (stereo unspecified), the LD50 is 1420 mg/kg.
As to `CCC1(CC)C(=O)C=CN(CN2CCNCC2)C1=O`, the 50% lethal dose (LD50) was 1340 mg/kg.
As for `CN(C)C(=O)c1cccc(-c2ccccc2)c1O`, the LD50 was 1900 mg/kg.
Take `O=C1OC(OC(=O)c2cccnc2Nc2cccc(C(F)(F)F)c2)c2ccccc21` (stereo unspecified): the LD50 is 12000 mg/kg.
For the compound `Cc1ccc(OC(=O)c2ccccc2O)cc1`, the 50% lethal dose (LD50) is 1300 mg/kg.
`CC(=O)Nc1ccc2c(c1)sc1ccccc12`: the LD50 was 1200 mg/kg.
For the compound `CC(C(=O)O)c1cccc2c(-c3ccccc3)coc12` (stereo unspecified), the LD50 is 950 mg/kg.
On to `Cc1cccc(Cl)c1NC(=O)/C=C1\SCC(=O)N1C`, for which the 50% lethal dose (LD50) is 1350 mg/kg.
As for `CC(C)OC(=O)C(C(=O)OC(C)C)=C1SC=CS1`, the median lethal dose (LD50) was 2060 mg/kg.
`CCCCc1ccc(C(=O)O)nc1`: the LD50 was 480 mg/kg.
In the case of `C[C@@H]1C[C@H]2[C@@H]3CCC4=CC(=O)C=C[C@]4(C)[C@@]3(F)[C@@H](O)C[C@]2(C)[C@@]1(O)C(=O)COC(=O)c1ccncc1`, the LD50 was 3560 mg/kg.
Take `CNC(=O)c1cc(Oc2ccc(N)c(F)c2)ccn1`: the LD50 is 500 mg/kg.
On to `O=S1(=O)CCC(NNc2ccccc2)C1` (stereo unspecified), for which the LD50 is 2380 mg/kg.
As for `CC1NC(=O)c2cc(N)ccc2O1` (stereo unspecified), the median lethal dose (LD50) was 1420 mg/kg.
For the compound `CCSC(C)CC1CC(=O)C(/C(CC)=N/OC/C=C/Cl)=C(O)C1` (stereo unspecified), the 50% lethal dose (LD50) was 1360 mg/kg.
Consider `COC(=O)C1C2CC3c4[nH]c5cc(OC)ccc5c4CCN3CC2CC(OC2CCCCO2)C1OC` (stereo unspecified), for which the LD50 is 173 mg/kg.
In the case of `CCn1c(=O)oc2ccc(Cl)cc21`, the LD50 is 1350 mg/kg.
For the compound `OCC1CC2CC1C1CCC(CO)C21` (stereo unspecified), the LD50 was 2250 mg/kg.
On to `CC1=CC[C@@H]2C[C@@H](C[C@]3(CC[C@H](C)[C@@H](C)O3)O2)OC(=O)[C@@H]2C=C(C)[C@@H](O)[C@H]3OCC(=CC=C[C@H](C)C1)[C@]32O`, for which the median lethal dose (LD50) is 456 mg/kg.
With `Cc1ccccc1C(C)c1ccccc1` (stereo unspecified), the 50% lethal dose (LD50) is 1750 mg/kg.
Take `CC(O)CC(C)O` (stereo unspecified): the 50% lethal dose (LD50) was 6860 mg/kg.
As for `Nc1ncnc(Nc2cccc(Cl)c2)n1`, the LD50 was 400 mg/kg.
Consider `CCOC(=S)SSSSC(=S)OCC`, for which the median lethal dose (LD50) was 275 mg/kg.
As for `CCCCCCOC(=O)c1ccccc1`, the LD50 was 12300 mg/kg.
With `NC(=O)c1ccc2nc(C(F)(F)F)[nH]c2c1`, the LD50 was 31.6 mg/kg.
Turning to `OCC1CCC(CO)CC1` (stereo unspecified), the LD50 was 3200 mg/kg.
Take `C#CCCCC#C`: the LD50 is 2300 mg/kg.
On to `CSCC(=O)N(C)C(=O)Oc1ccccc1OC(C)C`, for which the LD50 is 650 mg/kg.
For the compound `CCN(CC)Cc1nccn1-c1ccc([N+](=O)[O-])cc1C(=O)c1ccccc1Cl`, the median lethal dose (LD50) is 1580 mg/kg.
As to `CNC(C)CC1CCCCC1` (stereo unspecified), the LD50 was 83 mg/kg.
As to `OCC(Cl)C(Cl)CO` (stereo unspecified), the LD50 is 2830 mg/kg.
For the compound `CCCCCCCCCCCCCCCCCC[N+](C)(C)CC(O)CCl` (stereo unspecified), the LD50 is 2590 mg/kg.
Consider `C=CCn1c(=O)[nH]c(=O)n(CC=C)c1=O`, for which the LD50 was 930 mg/kg.
On to `CON(C)C(=O)/C=C(\C)OP(=O)(OC)OC`, for which the LD50 is 2 mg/kg.
On to `C=CCC#N`, for which the 50% lethal dose (LD50) is 115 mg/kg.
As for `COP(=O)(Oc1ccc([N+](=O)[O-])c(C)c1)SC` (stereo unspecified), the median lethal dose (LD50) is 315 mg/kg.
In the case of `CN1CN(CCO)CSC1=S`, the 50% lethal dose (LD50) is 1000 mg/kg.
On to `CS(=O)(=O)OCCCNCCCOS(C)(=O)=O`, for which the LD50 was 108 mg/kg.
Take `Cc1cc(C)c(C2=C(OC(=O)C(C)(C)C)c3ccccc3C2=O)c(C)c1`: the LD50 is 8000 mg/kg.
Regarding `CCCN(CCCCOC(=O)c1ccc(OC)c(OC)c1)C1CCc2cc(OC)ccc2C1` (stereo unspecified), the LD50 was 707 mg/kg.
With `CC(=O)c1c(=O)cc(C)oc1=O`, the median lethal dose (LD50) was 706 mg/kg.
As for `COC(=O)N/N=C/c1c[n+]([O-])c2ccccc2[n+]1[O-]`, the LD50 is 850 mg/kg.
With `COP(=S)(OC)SCCSC(C)C`, the LD50 is 150 mg/kg.
As to `CN(C)C(CSS(=O)(=O)O)CSS(=O)(=O)O`, the 50% lethal dose (LD50) is 333 mg/kg.
`CCC1CN2CCC1CC2C(O)c1ccnc2ccc(OC)cc12` (stereo unspecified): the LD50 was 369 mg/kg.
For the compound `O=C(O)c1cc(-n2c(-c3ccccc3)cc3c2CCc2ccccc2-3)ccc1O`, the LD50 is 450 mg/kg.
In the case of `CO[SiH](OC)OC`, the 50% lethal dose (LD50) was 9330 mg/kg.
Take `C#CC(C)(CCC=C(C)C)OC(C)=O` (stereo unspecified): the 50% lethal dose (LD50) was 9620 mg/kg.
As for `O=C(Nc1ccc([N+](=O)[O-])cc1)OCc1cccnc1`, the LD50 was 14 mg/kg.
Regarding `CC(C)=CCC/C(C)=C/C#N`, the LD50 was 3100 mg/kg.
Consider `CC(=O)OCC=C(C)C`, for which the LD50 is 2900 mg/kg.
Consider `Cc1ccn(C(N)=O)n1`, for which the 50% lethal dose (LD50) was 830 mg/kg and 1100 mg/kg.
For `Cc1ccccc1OCC(O)CN(NC=NC(=O)c1ccccc1)C(C)C` (stereo unspecified), the median lethal dose (LD50) was 2930 mg/kg.
With `CCCN(CCC)c1c([N+](=O)[O-])cc(C(C)=O)cc1[N+](=O)[O-]`, the LD50 is 750 mg/kg.
As for `CCCCC(C=CC(C)=O)CC` (stereo unspecified), the LD50 was 8120 mg/kg.
On to `COP(=O)(OC)Oc1ccc(SC)cc1`, for which the LD50 was 7 mg/kg.
Regarding `CCOC(=O)N1CCC=C(C=NOC)C1`, the LD50 was 200 mg/kg.
`CCC(=O)Nc1cccc(OC(=O)NC)c1`: the 50% lethal dose (LD50) is 1000 mg/kg.
